Experimental data reported in patent publication US11180479B2 (HAPLOGEN GmbH, priority 2017, dated 2021).

Tests used:
[1] = test system: picornaviruses (CVB1, HRV-A2, HRV-A23, EV-68); assay: Anti-picornavirus cytopathic effect (CPE) reduction assay on HeLa H1 cells; assay type: cell-based; details: 48 h, category from averaging EC50 values of four picornaviruses (CVB1, HRV-A2, HRV-A23, EV68), second symbol in parentheses
Method in brief: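 HeLa H1 cells pre-treated 2 h with serial compound dilutions in 2% FBS DMEM, then infected at an MOI giving full CPE in 2 days; after 48 h, viability by CellTiterBlue fluorescence (560/590 nm) normalised to infected and uninfected vehicle controls; EC50 by non-linear regression, averaged over the four viruses.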

[2] = biological target: T1, PLA2G16 (Homo sapiens, UniProt P53816); assay: Enzyme activity assay for PLA2G16 (Red/Green BODIPY PC-A2 fluorescence); assay type: biochemical; details: His-tagged PLA2G16, 4 min pre-incubation, compound 2 nM to 50 μM; first symbol in parentheses
T1 construct: Hexa-His (N); made in house; host or cells: E. coli BL21(DE3)
T1 sequence (P53816 1-162): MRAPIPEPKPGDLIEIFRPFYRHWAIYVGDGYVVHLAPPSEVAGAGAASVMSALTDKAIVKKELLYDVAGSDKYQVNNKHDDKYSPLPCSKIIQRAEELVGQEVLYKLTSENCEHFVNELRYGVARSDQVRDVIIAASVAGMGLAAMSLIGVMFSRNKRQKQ
Method in brief: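 N-His human PLA2G16 was expressed in E. coli and Ni-NTA purified. Enzyme in 5 mM glutathione was preincubated 4 min with compound (2 nM–50 μM final), then Red/Green BODIPY PC-A2 in DOPC/DOPG/cholesterol vesicles was added (50 mM Tris pH 8.5, 100 mM NaCl). Fluorescence increase (ex 480/em 530 nm) over 10 min gave activity; IC50 came from nonlinear regression.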

| Structure (SMILES) | EC50 [1] [µM] | IC50 [2] [µM] |
| --- | --- | --- |
| O=C(NCC1CC1)C(=O)[C@@H]1CNC(=O)[C@H]1c1ccccc1 (single isomer, unassigned) [FP-85] | > 10 | < 1 |
| COCCN1C[C@H](C(=O)C(=O)NC2CC2)[C@@H](Cc2ccccc2)C1=O (racemic) [FP-39, Rac-2-[(3R,4R)-4-benzyl-1-(2-methoxyethyl)-5-oxopyrrolidin-3-yl]-N-cyclopropyl-2-oxoacetamide] | 1 to 10 | < 1 |
| CC(C)CNC(=O)C(=O)[C@H]1CN(CC(=O)N(C)C)C(=O)[C@@H]1Cc1ccccc1 (single isomer, unassigned) [FP-92] | 1 to 10 | < 1 |
| O=C(NC1CC1)C(=O)[C@H]1CN(Cc2ccncn2)C(=O)[C@@H]1Cc1ccccc1 (racemic) [FP-37, Rac-2-[(3R,4R)-4-benzyl-5-oxo-1-[(pyrimidin-4-yl)methyl]pyrrolidin-3-yl]-N-cyclopropyl-2-oxoacetamide] | 1 to 10 | < 1 |
| CCNC(=O)C(=O)[C@H]1CNC(=O)[C@@H]1c1ccccc1 (racemic) [FP-15, Rac-N-ethyl-2-oxo-2-[(3R,4S)-5-oxo-4-phenylpyrrolidin-3-yl]acetamide] | 1 to 10 | < 1 |
| O=C(NCC1CC1)C(=O)[C@@H]1CNC(=O)[C@H]1Cc1ccccc1 (single isomer, unassigned) [FP-82] | 1 to 10 | < 1 |
| Cc1noc(CN2C[C@H](C(=O)C(=O)NC3CC3)[C@@H](Cc3ccccc3)C2=O)n1 (racemic) [FP-34, Rac-2-[(3R,4R)-4-benzyl-1-[(3-methyl-1,2,4-oxadiazol-5-yl)methyl]-5-oxopyrrolidin-3-yl]-N-cyclopropyl-2-oxoacetamide] | 1 to 10 | < 1 |
| CN1C[C@H](C(=O)C(=O)NC2CC2)[C@@H](C2CCCCC2)C1=O (racemic) [FP-38, Rac-2-[(3R,4R)-4-cyclohexyl-1-methyl-5-oxopyrrolidin-3-yl]-N-cyclopropyl-2-oxoacetamide] | 1 to 10 | < 1 |
| O=C(NC1CC1)C(=O)[C@H]1CNC(=O)[C@@H]1c1ccccc1 (racemic) [FP-14, Rac-N-cyclopropyl-2-oxo-2-[(3R,4S)-5-oxo-4-phenylpyrrolidin-3-yl]acetamide] | 1 to 10 | < 1 |
| O=C(NOC1CCCCC1)C(=O)[C@H]1CNC(=O)[C@@H]1Cc1ccccc1 (racemic) [FP-9, Rac-2-[(3R,4R)-4-benzyl-5-oxopyrrolidin-3-yl]-N-(cyclohexyloxy)-2-oxoacetamide] | 1 to 10 | < 1 |
| CCNC(=O)C(=O)[C@H]1CN(Cc2ncccn2)C(=O)[C@@H]1Cc1ccccc1 (racemic) [FP-36, Rac-2-[(3R,4R)-4-benzyl-5-oxo-1-[(pyrimidin-2-yl)methyl]pyrrolidin-3-yl]-N-ethyl-2-oxoacetamide] | 1 to 10 | < 1 |
| Cc1ncncc1N1C[C@H](C(=O)C(=O)NCC(C)(F)F)[C@@H](Cc2ccccc2)C1=O (racemic) [FP-68, Rac-2-[(3R,4R)-4-benzyl-1-(4-methylpyrimidin-5-yl)-5-oxopyrrolidin-3-yl]-N-(2,2-difluoropropyl)-2-oxoacetamide] | 1 to 10 | < 1 |
| Cc1cc(CN2C[C@H](C(=O)C(=O)NC(C)C)[C@@H](c3ccccc3)C2=O)no1 (racemic) [FP-101, Rac-2-[(3R,4S)-1-[(5-methyl-1,2-oxazol-3-yl)methyl]-5-oxo-4-phenylpyrrolidin-3-yl]-2-oxo-N-(propan-2-yl)acetamide] | 1 to 10 | < 1 |
| Cn1ncnc1CN1C[C@H](C(=O)C(=O)NC2CC2)[C@@H](Cc2ccccc2)C1=O (racemic) [FP-42, Rac-2-[(3R,4R)-4-benzyl-1-[(1-methyl-1H-1,2,4-triazol-5-yl)methyl]-5-oxopyrrolidin-3-yl]-N-cyclopropyl-2-oxoacetamide] | 1 to 10 | < 1 |
| CC(C)CNC(=O)C(=O)[C@H]1CN(CCN2CCCC2=O)C(=O)[C@@H]1Cc1ccccc1 (racemic) [FP-47, Rac-2-[(3R,4R)-4-benzyl-5-oxo-1-[2-(2-oxopyrrolidin-1-yl)ethyl]pyrrolidin-3-yl]-N-(2-methylpropyl)-2-oxoacetamide] | 1 to 10 | < 1 |
| O=C(NC1CC1)C(=O)C1CC(=O)N(Cc2ccccc2)C1 (stereo not drawn) [FP-104, 2-(1-Benzyl-5-oxopyrrolidin-3-yl)-N-cyclopropyl-2-oxoacetamide] | 1 to 10 | < 1 |
| O=C(NC1CC1)C(=O)[C@H]1CN(c2ncccn2)C(=O)[C@@H]1Cc1ccccc1 (racemic) [FP-58, Rac-2-[(3R,4R)-4-benzyl-5-oxo-1-(pyrimidin-2-yl)pyrrolidin-3-yl]-N-cyclopropyl-2-oxoacetamide] | 1 to 10 | < 1 |
| CCNC(=O)C(=O)[C@H]1CN(c2ncccn2)C(=O)[C@@H]1Cc1ccccc1 (racemic) [FP-59, Rac-2-[(3R,4R)-4-benzyl-5-oxo-1-(pyrimidin-2-yl)pyrrolidin-3-yl]-N-ethyl-2-oxo-acetamide] | 1 to 10 | < 1 |
| O=C(NC1CC1)C(=O)[C@H]1CN(c2ccnc(Cl)n2)C(=O)[C@@H]1Cc1ccccc1 (racemic) [FP-60, Rac-2-[(3R,4R)-4-benzyl-1-(2-chloropyrimidin-4-yl)-5-oxopyrrolidin-3-yl]-N-cyclopropyl-2-oxoacetamide] | 1 to 10 | < 1 |

Other lines, results leading:

| EC50 [1] [µM] | IC50 [2] [µM] | Structure (SMILES) |
| --- | --- | --- |
| < 1 | < 1 | CC(C)CNC(=O)C(=O)[C@H]1CNC(=O)[C@@H]1Cc1ccccn1 (racemic) [FP-80, Rac-N-(2-methylpropyl)-2-oxo-2-[(3R,4R)-5-oxo-4-[(pyridin-2-yl)methyl]pyrrolidin-3-yl]acetamide] |
| 1 to 10 | < 1 | O=C(NC1CC1)C(=O)[C@H]1CN(CCN2CCCC2=O)C(=O)[C@@H]1Cc1ccccc1 (racemic) [FP-48, Rac-2-[(3R,4R)-4-benzyl-5-oxo-1-[2-(2-oxopyrrolidin-1-yl)ethyl]pyrrolidin-3-yl]-N-cyclopropyl-2-oxoacetamide] |
| 1 to 10 | < 1 | CC(C)ONC(=O)C(=O)[C@H]1CNC(=O)[C@@H]1Cc1ccc(F)cc1 (racemic) [FP-77, Rac-2-[(3R,4R)-4-[(4-fluorophenyl)methyl]-5-oxopyrrolidin-3-yl]-2-oxo-N-(propan-2-yloxy)acetamide] |
| < 1 | < 1 | CCNC(=O)C(=O)[C@H]1CNC(=O)[C@@H]1Cc1ccccc1 (racemic) [FP-3, Rac-2-[(3R,4R)-4-benzyl-5-oxopyrrolidin-3-yl]-N-ethyl-2-oxoacetamide] |
| < 1 | < 1 | CC(C)CNC(=O)C(=O)[C@H]1CNC(=O)[C@@H]1c1ccccc1 (racemic) [FP-13, Rac-N-(2-methylpropyl)-2-oxo-2-[(3R,4S)-5-oxo-4-phenylpyrrolidin-3-yl]acetamide] |
| < 1 | < 1 | O=C(NCC1CC1)C(=O)[C@H]1CNC(=O)[C@@H]1c1ccc(F)cc1 (racemic) [FP-28, Rac-N-(cyclopropylmethyl)-2-[(3R,4S)-4-(4-fluorophenyl)-5-oxopyrrolidin-3-yl]-2-oxoacetamide] |
| < 1 | < 1 | O=C(NCC1CC1)C(=O)[C@H]1CNC(=O)[C@@H]1Cc1ccccc1 (single isomer, unassigned) [FP-81] |
| < 1 | < 1 | Cn1cc(N2C[C@H](C(=O)C(=O)NC3CC3)[C@@H](Cc3ccccc3)C2=O)cn1 (racemic) [FP-75, Rac-2-[(3R,4R)-4-benzyl-1-(1-methyl-1H-pyrazol-4-yl)-5-oxopyrrolidin-3-yl]-N-cyclopropyl-2-oxoacetamide] |
| < 1 | < 1 | Cn1cc(N2C[C@H](C(=O)C(=O)NCC(C)(F)F)[C@@H](Cc3ccccc3)C2=O)cn1 (racemic) [FP-76, Rac-2-[(3R,4R)-4-benzyl-1-(1-methyl-1H-pyrazol-4-yl)-5-oxopyrrolidin-3-yl]-N-(2,2-difluoropropyl)-2-oxoacetamide] |
| < 1 | < 1 | CC(C)CNC(=O)C(=O)[C@H]1CN(CC(N)=O)C(=O)[C@@H]1Cc1ccccc1 (racemic) [FP-40, Rac-2-[(3R,4R)-4-benzyl-1-(carbamoylmethyl)-5-oxopyrrolidin-3-yl]-N-(2-methylpropyl)-2-oxoacetamide] |
| < 1 | < 1 | CC(C)CNC(=O)C(=O)[C@H]1CN(CC(=O)N(C)C)C(=O)[C@@H]1Cc1ccccc1 (racemic) [FP-44, Rac-2-[(3R,4R)-3-benzyl-4-{[(2-methylpropyl)carbamoyl]carbonyl}-2-oxopyrrolidin-1-yl]-N,N-dimethylacetamide] |
| < 1 | < 1 | O=C(NCC1CC1)C(=O)[C@H]1CNC(=O)[C@@H]1c1ccccc1 (single isomer, unassigned) [FP-86] |
| < 1 | < 1 | CCNC(=O)C(=O)[C@H]1CN(CC(F)F)C(=O)[C@@H]1Cc1ccccc1 (racemic) [FP-50, Rac-2-[(3R,4R)-4-benzyl-1-(2,2-difluoroethyl)-5-oxopyrrolidin-3-yl]-N-ethyl-2-oxoacetamide] |
| < 1 | < 1 | CCCCNC(=O)C(=O)[C@H]1CNC(=O)[C@@H]1c1ccccc1 (racemic) [FP-103, Rac-N-butyl-2-oxo-2-[(3R,4S)-5-oxo-4-phenylpyrrolidin-3-yl]acetamide] |
